Measured values from patent US20110086886A2, “INSECTICIDAL ISOXAZOLINES” (Bayer CropScience AG, priority 2006, published 2011).

Key:
Aulacophora femoralis = test: Test for Aulacophora femoralis (spray test); assay type: in vivo; settings: effective component concentration of 500 ppm; 2nd-instar, dipped cucumber leaves; after 7 days
Protocol: (§1) In order to obtain a preparation of a proper active compound, 1 part by weight of an active compound was mixed with the stated amounts of solvent and emulsifier and the mixture was diluted to a specified concentration with water.
The leaves of cucumbers were dipped in the aqueous solution diluted to a specified concentration with water. After the chemical solution was dried in air, these leaves were placed in a plastic cup, in which sterilized black soil was placed. 5 Aulacophora femoralis of the 2nd-instar were set free in the soil, to examine the number of dead insects after 7 days, thereby calculating the insecticidal ratio of the chemical solution.

Spodoptera litura larvae = test: Test for Spodoptera litura larvae (leaf dip); assay type: in vivo; settings: effective component concentration of 500 ppm, 3rd-instar larvae on dipped sweet potato leaves, after 7 days; for pest or weed control at 500 ppm: foliar, 168 h, read-out: insecticidal ratio
Protocol: as §1
The leaves of sweat potatoes were dipped in the test solution diluted to a specified concentration with water. After these leaves were dried in air to remove the chemical solution, they were placed in a Petri dish of 9 cm in diameter, in which 10 Spodoptera litura larvae of the 3rd-instar were set free. The Petri dish was placed in a thermostatic chamber kept at 25° C. and the leaves of sweat potatoes were added after 2 days and 4 days, to examine the number of dead larvae after 7 days, thereby calculating the insecticidal ratio of the chemical solution.
In this test, an average of the results in two Petri dishes in one section was calculated.

| SMILES | insecticidal ratio (Aulacophora femoralis) [%] | insecticidal ratio (Spodoptera litura larvae) [%] | pest or weed control at 500 ppm (Spodoptera litura larvae) [%] |
| --- | --- | --- | --- |
| N#Cc1cc(C2=NOC(c3cccc(Cl)c3)(C(F)(F)F)C2)ccc1-n1cncn1 (centres unmarked) [Compound 89] | 100 | 100 |  |
| O=[N+]([O-])c1cc(C2=NOC(c3cc(Cl)cc(Cl)c3)(C(F)(F)F)C2)ccc1-n1cnnn1 (centres unmarked) [Compound 154] | 100 | 100 |  |
| N#Cc1cc(C2=NOC(c3cc(Cl)cc(Cl)c3)(C(F)(F)F)C2)ccc1-n1ncnn1 (centres unmarked) [Compound 171] | 100 | 100 |  |
| FC(F)(F)C1(c2cc(Cl)cc(Cl)c2)CC(c2ccc(-n3cncn3)c(Br)c2)=NO1 (racemic) [Compound 97] | 100 | 100 |  |
| N#Cc1cc(C2=NOC(c3ccccc3)(C(F)(F)F)C2)ccc1-n1cncn1 (centres unmarked) [Compound 80] | 100 |  |  |
| FC(F)(F)C1(c2cc(Cl)cc(Cl)c2)CC(c2ccc(-n3cncn3)nc2)=NO1 (racemic) [Compound 114] | 100 | 100 |  |
| O=[N+]([O-])c1cc(C2=NOC(c3cccc(Cl)c3)(C(F)(F)F)C2)ccc1-n1cncn1 (racemic) [Compound 90] | 100 | 100 |  |
| FC(F)(F)C1(c2cc(Cl)cc(Cl)c2)CC(c2ccc(-n3cnnn3)c(Br)c2)=NO1 (centres unmarked) [Compound 151] | 100 | 100 |  |
| Cc1cc(C2=NOC(c3cc(Cl)cc(Cl)c3)(C(F)(F)F)C2)ccc1-n1cncn1 (racemic) [Compound 99] | 100 | 100 |  |
| N#Cc1cc(C2=NOC(c3cc(Cl)cc(Cl)c3)(C(F)(F)F)C2)ccc1-n1cc([N+](=O)[O-])cn1 (centres unmarked) [Compound 21] | 100 | 100 |  |
| O=[N+]([O-])c1cc(C2=NOC(c3cc(F)cc(F)c3)(C(F)(F)F)C2)ccc1-n1cncn1 (centres unmarked) [Compound 85] | 100 |  |  |
| O=[N+]([O-])c1cc(C2=NOC(c3cccc(C(F)(F)F)c3)(C(F)(F)F)C2)ccc1-n1cnnn1 (centres unmarked) [Compound 161] | 100 | 100 |  |
| FC(F)(F)c1cc(C2=NOC(c3cc(Cl)cc(Cl)c3)(C(F)(F)F)C2)ccc1-n1cncn1 (racemic) [Compound 100] | 100 | 100 |  |
| O=[N+]([O-])c1cc(C2=NOC(c3cccc(C(F)(F)F)c3)(C(F)(F)F)C2)ccc1-n1cncn1 (racemic) [Compound 127] | 100 | 100 |  |
| N#Cc1cc(C2=NOC(c3cc(C(F)(F)F)cc(C(F)(F)F)c3)(C(F)(F)F)C2)ccc1-n1cnnn1 (centres unmarked) [Compound 165] | 100 | 100 |  |
| COC(=O)Nc1cc(C2=NOC(c3cc(Cl)cc(Cl)c3)(C(F)(F)F)C2)ccc1-n1cncn1 (racemic) [Compound 109] | 100 | 100 |  |
| O=[N+]([O-])c1cc(C2=NOC(c3cc(C(F)(F)F)cc(C(F)(F)F)c3)(C(F)(F)F)C2)ccc1-n1cnnn1 (centres unmarked) [Compound 166, 1-(4-{5-[3,5-bis(trifluoromethyl)phenyl]-5-(trifluoromethyl)-4,5-dihydroisoxazol-3-yl}-2-nitrophenyl)-1H-tetrazole] | 100 |  | 100 |
| FC(F)(F)c1cccc(C2(C(F)(F)F)CC(c3ccc(-n4cnnn4)cc3)=NO2)c1 (centres unmarked) [Compound 157] | 100 | 100 |  |
| CC(=O)Nc1cc(C2=NOC(c3cc(Cl)cc(Cl)c3)(C(F)(F)F)C2)ccc1-n1cncn1 (centres unmarked) [Compound 106, N-{5-[5-(3,5-dichlorophenyl)-5-(trifluoromethyl)-4,5-dihydroisoxazol-3-yl]-2-(1H-1,2,4-triazol-1-yl)phenyl}acetamide] | 100 |  | 100 |

| SMILES | insecticidal ratio (Aulacophora femoralis) [%] | insecticidal ratio (Spodoptera litura larvae) [%] | pest or weed control at 500 ppm (Spodoptera litura larvae) [%] |
| --- | --- | --- | --- |
| O=[N+]([O-])c1cc(C2=NOC(c3cc(C(F)(F)F)cc(C(F)(F)F)c3)(C(F)(F)F)C2)ccc1-n1cncn1 (racemic) [Compound 136] | 100 | 100 |  |
| FC(F)(F)C1(c2cc(Cl)cc(Cl)c2)CC(c2ccc(-n3cnnn3)c(Cl)c2)=NO1 (racemic) [Compound 150] | 100 | 100 |  |
| FC(F)(F)c1cc(C(F)(F)F)cc(C2(C(F)(F)F)CC(c3ccc(-n4cncn4)c(Br)c3)=NO2)c1 (racemic) [Compound 134] | 100 | 100 |  |
| FC(F)(F)C1(c2cc(Cl)cc(Cl)c2)CC(c2ccc(-n3cnnn3)cc2)=NO1 (centres unmarked) [Compound 148, 1-{4-[5-(3,5-dichlorophenyl)-5-(trifluoromethyl)-4,5-dihydroisoxazol-3-yl]phenyl}-1H-tetrazole] | 100 |  | 100 |
| O=[N+]([O-])c1cc(C2=NOC(c3cc(Cl)cc(Cl)c3)(C(F)(F)F)C2)ccc1-n1ccnn1 (centres unmarked) [Compound 64] | 100 |  |  |
| O=[N+]([O-])c1cc(C2=NOC(c3cc(Cl)cc(Cl)c3)(C(F)(F)F)C2)ccc1-n1cc(F)cn1 (centres unmarked) [Compound 25] | 100 | 100 |  |
| FC(F)(F)C1(c2cc(Cl)cc(Cl)c2)CC(c2ccc(-n3cncn3)c(I)c2)=NO1 (racemic) [Compound 98] | 100 | 100 |  |
| FC(F)(F)c1cc(C(F)(F)F)cc(C2(C(F)(F)F)CC(c3ccc(-n4cncn4)cc3)=NO2)c1 (racemic) [Compound 132] | 100 | 100 |  |
| COc1cc(C2=NOC(c3cc(Cl)cc(Cl)c3)(C(F)(F)F)C2)ccc1-n1cncn1 (racemic) [Compound 103] | 100 | 100 |  |
| N#Cc1cc(C2=NOC(c3cccc(C(F)(F)F)c3)(C(F)(F)F)C2)ccc1-n1cncn1 (racemic) [Compound 126] | 100 | 100 |  |
| FC(F)(F)C1(c2cc(Cl)cc(Cl)c2)CC(c2ccc(-n3cncn3)c(Cl)c2)=NO1 (racemic) [Compound 94] | 100 | 100 |  |
| N#Cc1cc(C2=NOC(c3cc(Cl)cc(Cl)c3)(C(F)(F)F)C2)ccc1-n1cc(F)cn1 (centres unmarked) [Compound 16] |  | 100 |  |
| N#Cc1cc(C2=NOC(c3cc(C(F)(F)F)cc(C(F)(F)F)c3)(C(F)(F)F)C2)ccc1-n1cc([N+](=O)[O-])cn1 (centres unmarked) [Compound 47] |  | 100 |  |
| FC(F)(F)C1(c2cc(Cl)cc(Cl)c2)CC(c2ccc(-n3cc(Cl)cn3)cc2)=NO1 (centres unmarked) [Compound 4] |  | 100 |  |
| FC(F)(F)C1(c2cc(Cl)cc(Cl)c2)CC(c2ccc(-n3cccn3)cc2)=NO1 (centres unmarked) [Compound 2] |  | 100 |  |
| Fc1cc(C2=NOC(c3cc(Cl)cc(Cl)c3)(C(F)(F)F)C2)ccc1-n1cncn1 (racemic) [Compound 93] |  | 100 |  |
| O=[N+]([O-])c1cc(C2=NOC(c3cccc(Cl)c3)(C(F)(F)F)C2)ccc1-n1cnnn1 (racemic) [Compound 147] | 100 |  |  |
| N#Cc1cc(C2=NOC(c3cc(Cl)cc(Cl)c3)(C(F)(F)F)C2)ccc1-n1cc(I)cn1 (centres unmarked) [Compound 19] |  | 100 |  |
| N#Cc1cc(C2=NOC(c3cc(Cl)cc(Cl)c3)(C(F)(F)F)C2)ccc1-n1cc(Br)cn1 (centres unmarked) [Compound 18] |  | 100 |  |
